Laboratory results published in ChEMBL document CHEMBL3351476, “The discovery of I-BET726 (GSK1324726A), a potent tetrahydroquinoline ApoA1 up-regulator and selective BET bromodomain inhibitor” (J Med Chem, 2014).
Values after ≈ are worked out from the molar mass of the structure shown. Active and inactive are the calls of the source. No cut-off for these calls is given here.

Legend:
[1] = target: Bromodomain-containing protein 2 (Homo sapiens, UniProt P25440); assay: Displacement of biotinylated tetra-acetylated histone H4 from His6-tagged BRD2 (1 to 473 aa) (unknown origin) after 1 hr by TR-FRET assay
Sequence of Bromodomain-containing protein 2 (P25440 whole entry, the tested form may be a part): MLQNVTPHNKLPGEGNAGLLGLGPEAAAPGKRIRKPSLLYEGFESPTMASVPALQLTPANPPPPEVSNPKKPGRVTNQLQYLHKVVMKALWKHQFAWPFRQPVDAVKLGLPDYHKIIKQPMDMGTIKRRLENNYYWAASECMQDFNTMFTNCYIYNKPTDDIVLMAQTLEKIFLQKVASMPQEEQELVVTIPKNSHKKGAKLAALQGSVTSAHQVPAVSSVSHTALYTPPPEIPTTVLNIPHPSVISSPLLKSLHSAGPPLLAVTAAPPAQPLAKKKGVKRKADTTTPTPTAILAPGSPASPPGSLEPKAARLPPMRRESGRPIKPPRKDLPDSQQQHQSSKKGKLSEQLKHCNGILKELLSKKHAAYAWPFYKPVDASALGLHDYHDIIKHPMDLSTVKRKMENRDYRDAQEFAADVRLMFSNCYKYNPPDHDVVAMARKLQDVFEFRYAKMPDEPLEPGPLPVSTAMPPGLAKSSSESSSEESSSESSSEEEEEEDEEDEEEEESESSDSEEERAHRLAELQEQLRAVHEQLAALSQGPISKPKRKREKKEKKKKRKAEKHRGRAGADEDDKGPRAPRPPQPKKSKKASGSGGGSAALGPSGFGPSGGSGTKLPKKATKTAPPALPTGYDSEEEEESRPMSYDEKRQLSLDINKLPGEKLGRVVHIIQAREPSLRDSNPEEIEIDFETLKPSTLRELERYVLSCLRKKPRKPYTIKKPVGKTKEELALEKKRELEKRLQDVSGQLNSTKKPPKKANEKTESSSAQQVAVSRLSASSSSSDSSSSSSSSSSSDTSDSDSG

[2] = target: Bromodomain-containing protein 3 (Homo sapiens, UniProt Q15059); assay: Displacement of biotinylated tetra-acetylated histone H4 from His6-tagged BRD3 (1 to 475 aa) (unknown origin) after 1 hr by TR-FRET assay
Sequence of Bromodomain-containing protein 3 (Q15059 whole entry, the tested form may be a part): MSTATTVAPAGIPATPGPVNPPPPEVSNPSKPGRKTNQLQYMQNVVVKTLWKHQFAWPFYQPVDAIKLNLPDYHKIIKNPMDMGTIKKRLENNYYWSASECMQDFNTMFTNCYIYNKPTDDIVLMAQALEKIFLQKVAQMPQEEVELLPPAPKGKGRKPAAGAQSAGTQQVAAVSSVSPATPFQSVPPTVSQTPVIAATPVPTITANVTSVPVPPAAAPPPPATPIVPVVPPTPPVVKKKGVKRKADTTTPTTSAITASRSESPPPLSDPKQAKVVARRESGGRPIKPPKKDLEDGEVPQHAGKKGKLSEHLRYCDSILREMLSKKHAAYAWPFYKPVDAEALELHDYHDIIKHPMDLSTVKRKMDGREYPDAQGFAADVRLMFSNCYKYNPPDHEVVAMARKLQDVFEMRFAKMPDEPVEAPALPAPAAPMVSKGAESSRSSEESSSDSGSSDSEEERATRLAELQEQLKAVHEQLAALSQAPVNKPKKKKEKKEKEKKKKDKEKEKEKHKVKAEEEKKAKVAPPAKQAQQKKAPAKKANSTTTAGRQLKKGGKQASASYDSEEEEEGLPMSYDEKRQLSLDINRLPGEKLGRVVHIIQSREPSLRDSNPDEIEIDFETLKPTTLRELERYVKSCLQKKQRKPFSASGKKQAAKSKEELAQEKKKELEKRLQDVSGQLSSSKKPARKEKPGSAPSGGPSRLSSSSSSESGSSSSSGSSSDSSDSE

[3] = target: Bromodomain-containing protein 4 (Homo sapiens, UniProt O60885); assay: Displacement of biotinylated tetra-acetylated histone H4 from His6-tagged BRD4 (1 to 477 aa) (unknown origin) after 1 hr by TR-FRET assay
[4] = Solubility of the compound in fasted state simulated intestinal fluid at 125 ug/ml after 16 hrs by HPLC analysis; format: ADME; conditions: for solubility at 16 h: fasted state simulated intestinal fluid
HepG2 [5] = assay: Upregulation of ApoA1 in human HepG2 cells after 16 hrs by luciferase reporter assay relative to control; format: functional
PBMC = assay: Inhibition of LPS-induced IL6 production in human PBMC after 18 to 24 hrs by immunoassay; format: functional, cell-based
Blood = assay: Inhibition of LPS-induced IL6 production in human whole blood after 24 hrs by immunoassay; format: functional, tissue-based
Hepatocyte [6] = assay: Clearance in human hepatocytes assessed per gram of tissue at 1 uM by LC-MS/MS analysis; format: ADME, cell-based
Hepatocyte [7] = assay: Clearance in rat hepatocytes assessed per gram of tissue at 1 uM by LC-MS/MS analysis; format: ADME, cell-based
[8] = Clearance in dog hepatocytes assessed per gram of tissue at 1 uM by LC-MS/MS analysis; format: ADME, cell-based, Canis lupus familiaris, Hepatocyte
[9] = Clearance in Cynomolgus monkey hepatocytes assessed per gram of tissue at 1 uM by LC-MS/MS analysis; format: ADME, cell-based, Macaca fascicularis, Hepatocyte
Cytochrome P450 1A2 = Cytochrome P450 1A2 (Homo sapiens, UniProt P05177); assay: Inhibition of CYP1A2 (unknown origin) expressed in Escherichia coli bactosomes using ethoxyresorufin as substrate after 10 mins by fluorescence assay; format: ADME
Sequence of Cytochrome P450 1A2 (P05177 whole entry): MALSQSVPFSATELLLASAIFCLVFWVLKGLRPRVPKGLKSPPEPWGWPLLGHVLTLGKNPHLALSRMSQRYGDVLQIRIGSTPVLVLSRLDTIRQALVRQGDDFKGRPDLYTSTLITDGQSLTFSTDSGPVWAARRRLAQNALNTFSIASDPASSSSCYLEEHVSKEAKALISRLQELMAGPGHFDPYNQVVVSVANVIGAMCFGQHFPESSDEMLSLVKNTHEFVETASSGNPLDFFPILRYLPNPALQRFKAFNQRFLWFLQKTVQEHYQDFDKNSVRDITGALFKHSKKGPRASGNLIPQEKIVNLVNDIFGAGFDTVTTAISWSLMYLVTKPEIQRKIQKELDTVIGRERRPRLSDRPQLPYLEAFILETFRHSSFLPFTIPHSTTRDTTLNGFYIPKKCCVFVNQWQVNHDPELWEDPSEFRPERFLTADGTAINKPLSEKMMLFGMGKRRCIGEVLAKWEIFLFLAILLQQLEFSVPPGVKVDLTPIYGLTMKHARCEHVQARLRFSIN

Cytochrome P450 2C9 = Cytochrome P450 2C9 (Homo sapiens, UniProt P11712); assay: Inhibition of CYP2C9 (unknown origin) expressed in Escherichia coli bactosomes using 7-methoxy-4-trifluoromethylcoumarin-3-acetic acid as substrate after 10 mins by fluorescence assay; format: ADME
Sequence of Cytochrome P450 2C9 (P11712 whole entry): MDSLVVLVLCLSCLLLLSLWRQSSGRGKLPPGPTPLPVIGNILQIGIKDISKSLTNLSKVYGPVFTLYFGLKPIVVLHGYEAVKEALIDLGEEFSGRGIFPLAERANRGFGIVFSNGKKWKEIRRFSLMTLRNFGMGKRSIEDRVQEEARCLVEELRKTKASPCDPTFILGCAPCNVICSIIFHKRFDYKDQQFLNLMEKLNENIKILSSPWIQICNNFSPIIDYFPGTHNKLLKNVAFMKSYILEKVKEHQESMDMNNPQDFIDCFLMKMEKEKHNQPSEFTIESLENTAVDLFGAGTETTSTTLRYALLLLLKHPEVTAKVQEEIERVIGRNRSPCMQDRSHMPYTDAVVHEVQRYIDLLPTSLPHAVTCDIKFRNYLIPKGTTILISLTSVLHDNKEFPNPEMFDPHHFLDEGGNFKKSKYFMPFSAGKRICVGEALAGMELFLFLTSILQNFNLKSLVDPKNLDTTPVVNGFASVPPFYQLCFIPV

Cytochrome P450 2C19 = Cytochrome P450 2C19 (Homo sapiens, UniProt P33261); assay: Inhibition of CYP2C19 (unknown origin) expressed in Escherichia coli bactosomes using 3-butyryl-7-methoxycoumarin as substrate after 10 mins by fluorescence assay; format: ADME
Sequence of Cytochrome P450 2C19 (P33261 whole entry): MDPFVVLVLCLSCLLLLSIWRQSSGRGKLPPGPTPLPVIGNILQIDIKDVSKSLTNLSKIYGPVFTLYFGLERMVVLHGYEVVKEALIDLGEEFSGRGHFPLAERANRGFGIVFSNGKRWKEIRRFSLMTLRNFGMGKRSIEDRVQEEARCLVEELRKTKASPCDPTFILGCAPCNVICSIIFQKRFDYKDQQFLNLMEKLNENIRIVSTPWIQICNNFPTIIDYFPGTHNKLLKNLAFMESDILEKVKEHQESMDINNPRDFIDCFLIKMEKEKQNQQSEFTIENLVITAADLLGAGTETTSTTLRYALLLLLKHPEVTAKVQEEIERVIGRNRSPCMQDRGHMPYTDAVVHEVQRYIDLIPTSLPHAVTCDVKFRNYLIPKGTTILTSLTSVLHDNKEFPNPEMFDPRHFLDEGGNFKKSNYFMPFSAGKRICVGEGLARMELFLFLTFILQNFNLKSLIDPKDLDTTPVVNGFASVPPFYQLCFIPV

Cytochrome P450 2D6 = Cytochrome P450 2D6 (Homo sapiens, UniProt P10635); assay: Inhibition of recombinant human CYP2D6 expressed in Escherichia coli bactosomes using 4-methylaminomethyl-7-methoyxycoumarin as substrate after 10 mins by fluorescence assay; format: ADME
Sequence of Cytochrome P450 2D6 (P10635 whole entry): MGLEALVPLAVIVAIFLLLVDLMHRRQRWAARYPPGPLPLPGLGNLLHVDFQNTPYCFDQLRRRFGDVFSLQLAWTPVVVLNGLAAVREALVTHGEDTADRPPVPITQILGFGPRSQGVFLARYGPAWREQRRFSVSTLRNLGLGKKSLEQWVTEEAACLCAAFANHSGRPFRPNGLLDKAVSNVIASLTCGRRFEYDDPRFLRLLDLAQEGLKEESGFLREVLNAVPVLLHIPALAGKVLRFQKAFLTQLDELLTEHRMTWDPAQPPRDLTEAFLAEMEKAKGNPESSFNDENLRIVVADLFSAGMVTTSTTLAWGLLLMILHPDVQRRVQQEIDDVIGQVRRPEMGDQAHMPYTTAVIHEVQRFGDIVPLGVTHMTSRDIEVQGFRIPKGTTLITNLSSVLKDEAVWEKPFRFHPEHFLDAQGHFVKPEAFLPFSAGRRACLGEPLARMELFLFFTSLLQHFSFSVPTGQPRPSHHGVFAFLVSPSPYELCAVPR

Cytochrome P450 3A4 [10] = target: T1, Cytochrome P450 3A4 (Homo sapiens, UniProt P08684); assay: Inhibition of human recombinant CYP3A4 expressed in Escherichia coli bactosomes using 7-benzloxyquinolone as substrate after 10 mins by fluorescence assay; format: ADME
T1 sequence (P08684 whole entry): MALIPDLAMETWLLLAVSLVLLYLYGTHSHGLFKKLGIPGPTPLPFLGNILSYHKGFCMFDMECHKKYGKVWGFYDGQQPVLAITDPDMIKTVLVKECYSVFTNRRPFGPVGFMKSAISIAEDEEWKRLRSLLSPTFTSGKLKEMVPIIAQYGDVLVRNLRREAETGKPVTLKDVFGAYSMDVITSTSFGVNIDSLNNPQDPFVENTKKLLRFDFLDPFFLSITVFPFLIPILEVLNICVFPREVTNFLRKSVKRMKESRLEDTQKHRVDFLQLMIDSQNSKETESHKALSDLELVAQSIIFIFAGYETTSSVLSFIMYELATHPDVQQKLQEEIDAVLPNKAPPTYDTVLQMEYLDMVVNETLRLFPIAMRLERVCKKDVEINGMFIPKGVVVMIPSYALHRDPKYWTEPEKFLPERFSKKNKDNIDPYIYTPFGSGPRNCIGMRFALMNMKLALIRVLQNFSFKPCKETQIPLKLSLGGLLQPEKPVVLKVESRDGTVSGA

Cytochrome P450 3A4 [11] = target: T1, Cytochrome P450 3A4; assay: Inhibition of human recombinant CYP3A4 expressed in Escherichia coli bactosomes using diethoxyfluorescein as substrate after 10 mins by fluorescence assay; format: ADME
Mus musculus [12] = assay: Antiinflammatory activity in Balb/c mouse assessed as inhibition of LPS-induced PAI-1 mRNA expression in liver administered orally 2 hrs before LPS challenge measured after 2 hrs; format: functional, organism-based
Mus musculus [13] = assay: Antiinflammatory activity in Balb/c mouse assessed as inhibition of LPS-induced PAI-1 mRNA expression in liver at 3 mg/kg, po 2 hrs before LPS challenge measured after 2 hrs; format: functional, organism-based; set-up: dose 3 mg/kg
HepG2 [14] = assay: Upregulation of ApoA1 in human HepG2 cells at 1.25 uM after 16 hrs by luciferase reporter assay relative to control; format: functional
HepG2 [15] = assay: Upregulation of ApoA1 in human HepG2 cells at 10 uM after 16 hrs by luciferase reporter assay relative to control; format: functional

Row | SMILES | IC50 [1] [nM] | IC50 [2] [nM] | IC50 [3] [nM] | pEC170 (HepG2 [5]) | further results
1 | CC(=O)N1c2ccc(-c3ccc(CN4CCCCC4)cc3)cc2[C@@H](Nc2ccccc2)C[C@H]1C | 25100 | 25100 | 25100 | 5.9 | –
2 | CC(=O)N1c2ccc(-c3ccc(C(=O)O)cc3)cc2[C@H](Nc2ccc(Cl)cc2)C[C@@H]1C | – | – | – | – | inhibition (Mus musculus [12]): Dose-dependent effect; inhibition (Mus musculus [13]): Active
3 | CC(=O)N1c2ccccc2C(Nc2ccccc2)CC1C (mixture of isomers) | – | – | – | – | fold change (FC) (HepG2 [14]): 1.7; fold change (FC) (HepG2 [15]): 2.3
4 | CCC(=O)N1c2ccccc2C(Nc2ccccc2)CC1C (mixture of isomers) | – | – | – | – | fold change (FC) (HepG2 [14]): 1.6; fold change (FC) (HepG2 [15]): 1.4
5 | CCCC(=O)N1c2ccccc2C(Nc2ccccc2)CC1C (mixture of isomers) | – | – | – | – | fold change (FC) (HepG2 [15]): <=1.1
6 | CCCCC(=O)N1c2ccccc2C(Nc2ccccc2)CC1C (mixture of isomers) | – | – | – | – | fold change (FC) (HepG2 [15]): <=1.1
7 | CC(=O)N1c2ccc(-c3ccc(C(=O)O)cc3)cc2[C@H](Nc2ccc(Cl)cc2)C[C@@H]1C (racemic) | 398 | 398 | – | 7.8 | –
8 | CC(=O)N1c2ccccc2[C@@H](Nc2ccc(C)cc2)C[C@H]1C (racemic) | – | – | – | – | fold change (FC) (HepG2 [14]): 1.7
9 | CC(=O)N1c2ccccc2[C@@H](Nc2ccc(C)cc2)C[C@@H]1C (racemic) | – | – | – | – | fold change (FC) (HepG2 [14]): 1.1
10 | CC(=O)N1c2ccccc2[C@H](Nc2ccccc2)C[C@@H]1C (racemic) | – | – | – | – | fold change (FC) (HepG2 [14]): 1.7
11 | COC(=O)c1ccc(-c2ccc3c(c2)[C@H](Nc2ccccc2)C[C@H](C)N3C(C)=O)cc1 (racemic) | 1260 | 1000 | 1260 | 7.4 | solubility at 16 h [4]: 69 µg/mL (≈ 166 µM)
12 | CC(=O)N1c2ccc(-c3ccc(C(F)(F)F)cc3)cc2[C@H](Nc2ccccc2)C[C@@H]1C (racemic) | 2000 | 1260 | 1000 | 6.2 | –
13 | COc1ccc(-c2ccc3c(c2)[C@H](Nc2ccccc2)C[C@H](C)N3C(C)=O)cc1 (racemic) | 1260 | 631 | 631 | 7.2 | solubility at 16 h [4]: 92 µg/mL (≈ 238 µM)
14 | CC(=O)N1c2ccc(-c3cccc(CN4CCCCC4)c3)cc2[C@H](Nc2ccccc2)C[C@@H]1C (racemic) | 1260 | 398 | 794 | 7.1 | solubility at 16 h [4]: 99 µg/mL (≈ 218 µM)
15 | CC(=O)N1c2ccc(-c3ccc(CN4CCCCC4)cc3)cc2[C@H](Nc2ccccc2)C[C@@H]1C (racemic) | – | – | – | 7.9 | solubility at 16 h [4]: 111 µg/mL (≈ 245 µM)
16 | CC(=O)N1c2ccc(-c3ccc(CN4CCCCC4)cc3)cc2[C@H](NC=O)C[C@@H]1C (racemic) | 15800 | 6310 | 6310 | 5.3 | –
17 | CC(=O)N1c2ccc(-c3ccc(CN4CCCCC4)cc3)cc2[C@H](N)C[C@@H]1C (racemic) | 50100 | 25100 | 25100 | <5 | –
18 | COC(=O)c1ccc(-c2ccc3c(c2)[C@H](Nc2ccc(S(C)(=O)=O)cc2)C[C@H](C)N3C(C)=O)cc1 (racemic) | 1260 | 501 | 631 | 6 | –
19 | COC(=O)c1ccc(-c2ccc3c(c2)[C@H](Nc2ccc(F)cc2)C[C@H](C)N3C(C)=O)cc1 (racemic) | 1580 | 1000 | 794 | 7.3 | –
20 | CC(=O)N1c2ccc(-c3ccc(C#N)cc3)cc2[C@H](Nc2cccc(F)c2)C[C@@H]1C (racemic) | 1260 | 794 | 1000 | 6.8 | –
21 | COc1cccc(N[C@@H]2C[C@H](C)N(C(C)=O)c3ccc(-c4ccc(C#N)cc4)cc32)c1 (racemic) | 1580 | 794 | 1000 | 6.7 | –
22 | CC(=O)N1c2ccc(-c3ccc(CN4CCCCC4)cc3)cc2[C@H](Nc2ccc(Cl)cc2)C[C@@H]1C (racemic) | 1000 | 1260 | 1000 | 8 | –
23 | COC(=O)c1cccc(-c2ccc3c(c2)[C@H](Nc2ccc(Cl)cc2)C[C@H](C)N3C(C)=O)c1 (racemic) | 2000 | 1000 | 1000 | 7.2 | –
24 | CC(=O)N1c2ccc(-c3ccccc3C)cc2[C@H](Nc2ccc(Cl)cc2)C[C@@H]1C (racemic) | 3980 | 2510 | 3980 | 5.6 | –
25 | COc1ccc(-c2ccc3c(c2)[C@H](Nc2ccccc2)CCN3C(C)=O)cc1 (racemic) | 6310 | 1580 | 2510 | 6.1 | –

Further molecules by falling IC50 [1], results first:

Row | IC50 [1] [nM] | IC50 [2] [nM] | IC50 [3] [nM] | SMILES | pEC170 (HepG2 [5]) | further results
26 | 1000 | 794 | 631 | CC(=O)N1c2ccc(-c3ccc(C#N)cc3)cc2[C@H](Nc2ccccc2)C[C@@H]1C (racemic) | 7 | solubility at 16 h [4]: 57 µg/mL (≈ 149 µM)
27 | 1000 | 316 | 316 | CC(=O)N1c2ccc(-c3ccc(C(=O)O)cc3)cc2[C@H](Nc2ccc(S(C)(=O)=O)cc2)C[C@@H]1C (racemic) | 5.4 | –
28 | 794 | 501 | 794 | CC(=O)N1c2ccc(-c3ccccc3)cc2[C@H](Nc2ccccc2)C[C@@H]1C (racemic) | 7 | –
29 | 794 | 501 | 501 | CC(=O)N1c2ccc(-c3ccc(CO)cc3)cc2[C@H](Nc2ccccc2)C[C@@H]1C (racemic) | 7.5 | solubility at 16 h [4]: 73 µg/mL (≈ 189 µM)
30 | 794 | 631 | 501 | CC(=O)N1c2ccc(-c3ccc(CN4CCOCC4)cc3)cc2[C@H](Nc2ccccc2)C[C@@H]1C (racemic) | 7.6 | solubility at 16 h [4]: 107 µg/mL (≈ 235 µM)
31 | 794 | 501 | 794 | CC(=O)N1c2ccc(-c3cccc(C(=O)O)c3)cc2[C@H](Nc2ccc(Cl)cc2)C[C@@H]1C (racemic) | 7.4 | –
32 | 794 | 398 | 501 | CC(=O)N1c2ccc(-c3ccc(C(N)=O)cc3)cc2[C@H](Nc2ccc(Cl)cc2)C[C@@H]1C (racemic) | 7.8 | –
33 | 631 | 398 | 501 | CC(=O)N1c2ccc(-c3ccc(C(=O)O)cc3)cc2[C@H](Nc2ccccc2)C[C@@H]1C (racemic) | 7.3 | solubility at 16 h [4]: 118 µg/mL (≈ 295 µM)
34 | 631 | 501 | 501 | COc1cccc(N[C@@H]2C[C@H](C)N(C(C)=O)c3ccc(-c4ccc(C(=O)O)cc4)cc32)c1 (racemic) | 7.3 | –
35 | 631 | 501 | 631 | COc1ccccc1N[C@@H]1C[C@H](C)N(C(C)=O)c2ccc(-c3ccc(C(=O)O)cc3)cc21 (racemic) | 7.6 | –
36 | 501 | 316 | 398 | CC(=O)N1c2ccc(-c3ccc(CN4CCCCC4)cc3)cc2[C@H](Nc2ccccc2)C[C@@H]1C | 8 | solubility ([4]; simulated gi fluid, 16 h): 125 µg/mL (≈ 276 µM); IC50 (PBMC): 3.16 nM; IC50 (Blood): 63.1 nM; CLH (Hepatocyte [6]): 1.8 mL/min/g; CLH (Hepatocyte [7]): 0.8 mL/min/g; CLH [8]: 0.9 mL/min/g; CLH [9]: 6 mL/min/g; IC50 (Cytochrome P450 1A2): > 33000 nM; IC50 (Cytochrome P450 2C9): 14000 nM; IC50 (Cytochrome P450 2C19): 20000 nM; IC50 (Cytochrome P450 2D6): 8000 nM; IC50 (Cytochrome P450 3A4 [10]): 10000 nM; IC50 (Cytochrome P450 3A4 [11]): 2000 nM
37 | 501 | 501 | 631 | COC(=O)c1ccc(-c2ccc3c(c2)[C@H](Nc2ccc(C(C)(C)C)cc2)C[C@H](C)N3C(C)=O)cc1 (racemic) | 6.9 | –
38 | 501 | 316 | 631 | CC(=O)N1c2ccc(-c3ccc(C(=O)O)cc3)cc2[C@H](Nc2ccc(C)cc2)C[C@@H]1C (racemic) | 7.8 | –
39 | 200 | 158 | 251 | CC(=O)N1c2ccc(-c3ccc(C(=O)O)cc3)cc2[C@H](Nc2ccc(C)cc2)C[C@@H]1C | 8 | –
